The test system of data set [1] is ERK signaling. Put plainly: Western-blotting of 92.1 cells, ERK signaling. The class given is cell-based. The settings on record: FIG. 3C. How it is done: (§1) 92.1 uveal melanoma were treated with increasing concentrations of Compound (A1) or Compound (A2) as indicated. Following drug treatment overnight, cells were processed for determination of IP1 levels using TR-FRET (time-resolved fluorescent resonance energy transfer) or protein levels by western-blotting.

For data set [2], the system named is MIAPACA pancreatic ductal adenocarcinoma cells. Put plainly: Resazurin-based viability assay, MIAPACA cells. It is filed as cell-based. The settings on record: Homo sapiens, MIA PaCa-2, WT, 96 or 120 hours, Table 4. How it is done:
92.1 uveal melanoma and MIAPACA pancreatic ductal adenocarcinoma cells were seeded at low cell density in 96-well plates and treated with increasing concentrations of Compound (A1) or Compound (A2) as indicated. Following drug treatment for 96 or 120 hours, cell viability and proliferation were determined using a resazurin-based viability assay. Briefly, cells were incubated with a resazurin-based solution and color change was detected by absorbance with a spectrophotometer and used as a readout of cell viability. Data presented as mean of 3 independent replicates and relative to PBS-treated cells (control).
(In general: Alamar Blue is a resazurin reagent that responds to reducing activity.)

The nature of data set [3]: Plasma stability of Compound (A1) in mouse, rat, monkey and human plasma compared to buffer. The settings on record: over 24 h, FIG. 4A-4B. It is filed as in vitro ADME. How it is done:
The plasma stability of Compound (A1) was investigated in mouse, rat, monkey and human plasma and compared to buffer. Both disappearance of Compound (A1) (FIG. 4A) as well as appearance of the ring-opened form of Compound (A1) having the structure of Compound (A4)
[drawing 153] (FIG. 4B) were monitored over 24 h.

For data set [4], the system named is 92.1 uveal melanoma. Put plainly: Resazurin-based viability assay, 92.1 uveal melanoma cells. The class given is cell-based. How it is done:
(§2) Following drug treatment for 96 or 120 hours, cell viability and proliferation were determined using a resazurin-based viability assay. Briefly, cells were incubated with a resazurin-based solution and color change was detected by absorbance with a spectrophotometer and used as a readout of cell viability. Data presented as mean of 3 independent replicates and relative to PBS-treated cells (control).
Following drug treatment for 96 or 120 hours, cell viability and proliferation were determined using a resazurin-based viability assay. Briefly, cells were incubated with a resazurin-based solution and color change was detected by absorbance with a spectrophotometer and used as a readout of cell viability. Data presented as mean of 3 independent replicates and relative to PBS-treated cells (control) (FIG. 6).
Following drug treatment for 96 or 120 hours, cell viability and proliferation were determined using a resazurin-based viability assay. Data presented as mean of 3 independent replicates and relative to PBS-treated cells (control) (FIG. 8).
as §2

Data set [5] relates to 92.1 cells. Put plainly: Annexin V flow cytometry apoptosis assay, 92.1 cells. The class given is cell-based. The settings on record: 92.1 and MIAPACA cells, FIG. 2. How it is done:
92.1 and MIAPACA cells were seeded in 96-well plates (5000 cells per well) and treated with increasing concentrations of Compound (A1), Compound (A2), and a fixed dose of Staurosporine (100 nM, positive control) as indicated. Following drug treatment for 96, cells were subjected to fluorescence-activated flow cytometry using an Annexin V antibody conjugated to a fluorescent dye. Data presented as mean of 3 independent replicates.
92.1 cells were seeded in 96-well plates (5000 cells per well) and treated with increasing concentrations of Compound (A1), 3207-(B1) (Isotype control), G4-(B1), and G1-(B1) as indicated. Following drug treatment for 96, cells were subjected to fluorescence-activated flow cytometry using an Annexin V antibody conjugated to a fluorescent dye. Data presented as mean of 3 independent replicates.

A short description of data set [6]: PK of Compound (A1) after intravenous dosing in mouse. It is filed as in vivo. Particulars: for Vd: read-out: Vss. The source says:
Table 5 summarizing all PK values is shown below.

The subject of data set [7] is GNAQ/11. Put plainly: IP1 levels by TR-FRET in 92.1 uveal melanoma cells. It is filed as cell-based. The settings on record: 92.1 cells, overnight treatment, FIG. 3A. How it is done:
as §1
92.1 uveal melanoma were treated with DMSO, Compound (A1) (8 nM) and increasing concentrations of Isotype-(B1), anti-PMEL17-(B1) and anti-PMEL17-(B2) ADCs as indicated. Following drug treatment for 2 days, cells were processed for determination of IP1 levels using TR-FRET (time-resolved fluorescent resonance energy transfer). IP1 levels (nM) are presented as mean of 3 independent replicates.

Data set [8] concerns Human Platelet Rich Plasma (PRP). Particulars: human PRP, 0.1, 1 and 150 nM, 4, 16 or 24 h, TRAP6 32 uM, FIG. 11.
Procedure: Platelet aggregation was then measured following treatment with Thrombin Receptor Activating Peptide 6 (TRAP6) at 32 uM.
Data set [9] is described as follows: Stability in buffer at pH 5.6 and in lysosomes. The settings on record: buffer pH 5.6, lysosomes, 4 h, FIG. 5D. It is filed as in vitro ADME. How it is done:
In vitro stability of Compound (A2) was tested in plasma and blood from different species (FIG. 5A). […]

Data set [10] in a line: Exposure of ADC formats in an in vivo efficacy study and payload ring-opening on the antibody. Details: species or system mice. The settings on record: formats of G1-(B1), in vivo efficacy study, FIG. 14D. The text has this: [drawing 156] (filled circles) while being conjugated to the antibody was shown in vivo in mice (FIG. 14C). […] From comparing the PK of the non-targeted 3207-ADCs (FIG. 14E) one can deduce that the Fc-silencing has a significant effect on lowering the clearance of the DAR4 format.

The test system of data set [11] is 92.1-luciferase subcutaneous xenografts. Put plainly: 92.1-luciferase subcutaneous xenograft tumor growth in female nude mice. The class given is in vivo. Particulars: 7.5 mg/kg single dose i.v., FIG. 16. How it is done: Treatment (single dose i.v. injection) was performed 17 days post tumor inoculation. Values are mean±SEM; sample size, (n=5-12 mice per group). Initial tumor volume at day 0 was approximately 200-250 mm^3.
Treatments (single dose i.v. injection) were performed 17 days post tumor inoculation. Values represent mean±SEM; sample size, (n=5-6 mice per group). Initial tumor volume at day 0 was approximately 300-325 mm^3. (FIG. 16).
Treatment (single dose i.v. injection) was performed 14-17 days post tumor inoculation. Values are mean±SEM; sample size, (n=5-12 mice per group). Initial tumor volume at day 0 was approximately 200-250 mm3.

Like-named read-outs stand apart in the source and are kept apart here. Starred links: 1 amine or outer side, 2 acyl side, 3 side chain; linkers in the order of their positions; H or OH if unused. Positions of bridges follow the written chain, without caps; N, C: chain ends. Non-standard residues stand in square brackets, D forms with d. Residues, ends and D or L forms follow the SMILES beside them. *: point of attachment. Leu(3R-OH,Nα-propionyl) = CCC(=O)N[C@H](C(=O)*)[C@H](O)C(C)C; X1 = CC(C)[C@@H](O[*:3])[C@H](N[*:1])C(=O)[*:2]; NMeT = CN[C@H](C(=O)O)[C@@H](C)O; dPhLac = O=C(O)[C@H](O)Cc1ccccc1; NMeA = CN[C@@H](C)C(=O)O; NMeDha = C=C(NC)C(=O)O A value given as a limit tells only on which side of the number the result lay.

In general, GI50 refers to the concentration that inhibits growth by half. As usually defined, the AUC(0-inf) is the area under the concentration-time curve extrapolated to infinity. One may read the Cmax as the highest concentration seen after dosing.

In the case of `C=C1C(=O)N[C@@H](C)C(=O)N(C)[C@@H](C)C(=O)N[C@@H]([C@H](OC(=O)[C@@H](NC(=O)CC)[C@H](O)C(C)C)C(C)C)C(=O)N(C)[C@@H]([C@@H](C)OC)C(=O)O[C@H](C(C)C)[C@H](NC(C)=O)C(=O)O[C@H](Cc2ccccc2)C(=O)N1C` [Compound (A1), (R)-1-((3S,6S,9S,12S,18R,21S,22R)-21-acetamido-18-benzyl-22-isopropyl-3-((R)-1-methoxyethyl)-4,9,10,12,16-pentamethyl-15-methylene-2,5,8,11,14,17,20-heptaoxo-1,19-dioxa-4,7,10,13,16-pentaazacyclodocosan-6-yl)-2-methylpropyl (2S,3R)-3-hydroxy-4-methyl-2-propionamidopentanoate] (Ac-[X1][dPhLac][NMeDha]A[NMeA][X1](Leu(3R-OH,Nα-propionyl))[NMeT](Me); ester 1-C), the “ERK signaling (immunoblots)” value in data set [1] is “reduced ERK signaling”. For the same molecule, the GI50 was above 10000 nM in [2]; 0.18 nM in data set [4] (92.1, GNAQ^Q209L, 96 or 120 hours, Table 4, read-out: GI50); 0.467 nM in data set [4] (92.1 GNAQ^Q209L, Table 1, read-out: GI50 (nM) 92.1GNAQ^Q209L). The “transformation of Compound (A1) to ring-opened form in plasma” value in [3] is on record as “slightly faster in human plasma”. Further, in [4] (92.1 vs MIAPACA, FIG. 1), the anti-UM activity entry is “potent target-dependent anti-UM activity”. Besides, in data set [5], the “apoptosis (Annexin V)” value is given as “induced apoptosis in UM cells in GNAQ/11 dependent manner”. The “AUCinf/D (nM*h/(mg/kg))” value was 82 nM*h/(mg/kg) in [6] (0.2 mg/kg), 118 nM*h/(mg/kg) in [6] (0.4 mg/kg) and 171 nM*h/(mg/kg) in [6] (0.8 mg/kg). For the same molecule, the “C0/D (nM/(mg/kg))” value is given as 217 nM/(mg/kg) in data set [6] (0.2 mg/kg), 270 nM/(mg/kg) in data set [6] (0.4 mg/kg) and 475 nM/(mg/kg) in data set [6] (0.8 mg/kg). Also, the “Cmax/D (nM/(mg/kg))” value is reported as 156 nM/(mg/kg) in [6] (0.2 mg/kg), 208 nM/(mg/kg) in data set [6] (0.4 mg/kg) and 300 nM/(mg/kg) in data set [6] (0.8 mg/kg). The exposure with dose result in data set [6] (0.2-0.8 mg/kg) is given as “slightly over-proportional increase of exposure with dose”. The clearance result in data set [6] (FIG. 4D) is “very high clearance”; in data set [6] (in vivo, 0.2 mg/kg, read-out: CL), 204 mL/min/kg; in data set [6] (in vivo, 0.4 mg/kg, read-out: CL), 141 mL/min/kg; in [6] (in vivo, 0.8 mg/kg, read-out: CL) it was 97 mL/min/kg. Also, the volume of distribution result in [6] (FIG. 4D) was “moderate to high volume of distribution”. Moreover, the AUC(0-inf) in [6] (in vivo, 0.2 mg/kg) is 0.016 µM·h; in data set [6] (in vivo, 0.4 mg/kg), 0.047 µM·h; in [6] (in vivo, 0.8 mg/kg), 0.137 µM·h. For the same molecule, the C0 in data set [6] (in vivo, 0.2 mg/kg) worked out at 43 nM; in [6] (in vivo, 0.4 mg/kg), 108 nM; in data set [6] (in vivo, 0.8 mg/kg) it was 380 nM. The peak concentration (Cmax) is 31 nM in data set [6] (in vivo, 0.2 mg/kg); 83 nM in data set [6] (in vivo, 0.4 mg/kg); 240 nM in data set [6] (in vivo, 0.8 mg/kg). The Vd is 8.6 L/kg in data set [6] (in vivo, 0.2 mg/kg); 4.9 L/kg in data set [6] (in vivo, 0.4 mg/kg); 4.6 L/kg in data set [6] (in vivo, 0.8 mg/kg). Also, the IP1 levels entry in data set [7] is reported as “reduced IP1 levels”. The “platelet aggregation after TRAP6” value in [8] is “induced platelet aggregation”. Also, the “stability in buffer and lysosomes” value in data set [9] is “stable in buffer at pH 5.6 and in lysosomes over 4 h”.

B1: G1-E152C-DAR2-(B1) (conjugate)
heavy: QVQLVQSGAEVKKPGSSVKVSCKASGGTFSDYAITWVRQAPGQGLEWMGGIIPIFGTANYAQKFQGRVTITADESTSTAYMELSSLRSEDTAVYYCAREGGLLTDISYSRYWFAYWGQGTLVTVSS
light: DIELTQPPSVSVSPGQTASITCSGDALRDKFVYWYQQKPGQAPVLVIYDDNNRPSGIPERFSGSNSGNTATLTISGTQAEDEADYYCQSWDHSYSLVVFGGGTKLTVLGQPKAAPSVTLFPPSSEELQANKATLVCLISDFYPGAVTVAWKADSSPVKAGVETTTPSKQSNNKYAASSYLSLTPEQWKSHRSYSCQVTHEGSTVEKTVAPTECS
modifications: left off: a dimerising Fc or GST
For B1, the “clearance / exposure of ADC formats” value in [10] is “lowest clearance”. Besides, the GI50 in data set [4] (92.1, Table 10, read-out: GI50) is 0.365 nM. The antitumor activity entry in [11] was “comparable antitumor activity”.
